Assays:
Assay in all cases: relative viability (nuclei count vs DMSO), 5 days (fraction); higher = more cells survive
NCI-H650 = tested on: NCI-H650
Summary of the method: (§1)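 After 5 days of treatment, lung cancer cells in 1536-well plates were fixed and stained in a single step (final 0.05% Triton X-100, 1% formaldehyde, 1 ug/ml Hoechst) and their nuclei counted on 4× images. Treatment had been applied by pin tool the day after seeding as one drug alone or as a fixed anchor-drug dose with five library-drug doses (not always all listed) in √10 steps. Relative viability is the nuclei count of treated wells divided by that of vehicle wells, and values are medians of duplicate plates.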

NCI-H2342 = tested on: NCI-H2342
Summary of the method: as §1

COR-L 105 = tested on: COR-L 105
Summary of the method: as §1

NCI-H2347 = tested on: NCI-H2347
Summary of the method: as §1

NCI-H2023 = tested on: NCI-H2023
Summary of the method: as §1

COR-L23 = tested on: COR-L23
Summary of the method: as §1

HCC-15 = tested on: HCC-15
Summary of the method: as §1

NCI-H1792 = tested on: NCI-H1792
Summary of the method: as §1

LC-2-ad = tested on: LC-2-ad
Summary of the method: as §1

NCI-H1915 = tested on: NCI-H1915
Summary of the method: as §1

NCI-H2009 = tested on: NCI-H2009
Summary of the method: as §1

Structure (SMILES): CCNC(=O)c1noc(-c2cc(C(C)C)c(O)cc2O)c1-c1ccc(CN2CCOCC2)cc1 [Luminespib] + N=C(N)NC(=N)NCCc1ccccc1 [Phenformin] (partner 250 µM)
- relative viability (NCI-H650; first compound 0.002 µM): 0.437
- relative viability (NCI-H650; first compound 0.006325 µM): 0.453
- relative viability (NCI-H650; first compound 0.02 µM): 0.391
- relative viability (NCI-H650; first compound 0.06325 µM): 0.213
- relative viability (NCI-H650; first compound 0.2 µM): 0.121
- relative viability (NCI-H2342; first compound 0.002 µM): 0.549
- relative viability (NCI-H2342; first compound 0.006325 µM): 0.581
- relative viability (NCI-H2342; first compound 0.02 µM): 0.454
- relative viability (NCI-H2342; first compound 0.06325 µM): 0.606
- relative viability (NCI-H2342; first compound 0.2 µM): 0.355
- relative viability (COR-L 105; first compound 0.002 µM): 0.474
- relative viability (COR-L 105; first compound 0.006325 µM): 0.402
- relative viability (COR-L 105; first compound 0.02 µM): 0.337
- relative viability (COR-L 105; first compound 0.06325 µM): 0.154
- relative viability (COR-L 105; first compound 0.2 µM): 0.19
- relative viability (NCI-H2347; first compound 0.002 µM): 0.406
- relative viability (NCI-H2347; first compound 0.006325 µM): 0.269
- relative viability (NCI-H2347; first compound 0.02 µM): 0.417
- relative viability (NCI-H2347; first compound 0.06325 µM): 0.381
- relative viability (NCI-H2347; first compound 0.2 µM): 0.198
- relative viability (NCI-H2023; first compound 0.002 µM): 0.39
- relative viability (NCI-H2023; first compound 0.006325 µM): 0.376
- relative viability (NCI-H2023; first compound 0.02 µM): 0.287
- relative viability (NCI-H2023; first compound 0.06325 µM): 0.0664
- relative viability (NCI-H2023; first compound 0.2 µM): 0.0658
- relative viability (COR-L23; first compound 0.002 µM): 0.456
- relative viability (COR-L23; first compound 0.006325 µM): 0.367
- relative viability (COR-L23; first compound 0.02 µM): 0.457
- relative viability (COR-L23; first compound 0.06325 µM): 0.0668
- relative viability (COR-L23; first compound 0.2 µM): 0.0674
- relative viability (HCC-15; first compound 0.002 µM): 0.429
- relative viability (HCC-15; first compound 0.006325 µM): 0.405
- relative viability (HCC-15; first compound 0.02 µM): 0.311
- relative viability (HCC-15; first compound 0.06325 µM): 0.162
- relative viability (HCC-15; first compound 0.2 µM): 0.114
- relative viability (NCI-H1792; first compound 0.002 µM): 0.265
- relative viability (NCI-H1792; first compound 0.006325 µM): 0.263
- relative viability (NCI-H1792; first compound 0.02 µM): 0.101
- relative viability (NCI-H1792; first compound 0.06325 µM): 0.0593
- relative viability (NCI-H1792; first compound 0.2 µM): 0.077
- relative viability (LC-2-ad; first compound 0.002 µM): 0.531
- relative viability (LC-2-ad; first compound 0.006325 µM): 0.497
- relative viability (LC-2-ad; first compound 0.02 µM): 0.551
- relative viability (LC-2-ad; first compound 0.06325 µM): 0.25
- relative viability (LC-2-ad; first compound 0.2 µM): 0.231
- relative viability (NCI-H1915; first compound 0.002 µM): 0.361
- relative viability (NCI-H1915; first compound 0.006325 µM): 0.352
- relative viability (NCI-H1915; first compound 0.02 µM): 0.407
- relative viability (NCI-H1915; first compound 0.06325 µM): 0.293
- relative viability (NCI-H1915; first compound 0.2 µM): 0.0788
- relative viability (NCI-H2009; first compound 0.002 µM): 0.543
- relative viability (NCI-H2009; first compound 0.006325 µM): 0.44
- relative viability (NCI-H2009; first compound 0.02 µM): 0.487
- relative viability (NCI-H2009; first compound 0.06325 µM): 0.0851
- relative viability (NCI-H2009; first compound 0.2 µM): 0.103
